Legend:
P-gp = P-gp (Homo sapiens, UniProt P08183); assay: P-gp transportation in MDCK-MDR1 cells; assay type: in vitro ADME
[1] = cited from earlier work
CYP3A [2] = assay: Time-dependent CYP inhibition in HLMs; details: 10 µM zanubrutinib, 30 min pre-incubation with HLMs and NADPH
CYP1A2 [3] = molecular target: T1, CYP1A2 (Homo sapiens, UniProt P05177); assay: biochemical; assay type: in vitro ADME
T1 sequence (P05177 1-516): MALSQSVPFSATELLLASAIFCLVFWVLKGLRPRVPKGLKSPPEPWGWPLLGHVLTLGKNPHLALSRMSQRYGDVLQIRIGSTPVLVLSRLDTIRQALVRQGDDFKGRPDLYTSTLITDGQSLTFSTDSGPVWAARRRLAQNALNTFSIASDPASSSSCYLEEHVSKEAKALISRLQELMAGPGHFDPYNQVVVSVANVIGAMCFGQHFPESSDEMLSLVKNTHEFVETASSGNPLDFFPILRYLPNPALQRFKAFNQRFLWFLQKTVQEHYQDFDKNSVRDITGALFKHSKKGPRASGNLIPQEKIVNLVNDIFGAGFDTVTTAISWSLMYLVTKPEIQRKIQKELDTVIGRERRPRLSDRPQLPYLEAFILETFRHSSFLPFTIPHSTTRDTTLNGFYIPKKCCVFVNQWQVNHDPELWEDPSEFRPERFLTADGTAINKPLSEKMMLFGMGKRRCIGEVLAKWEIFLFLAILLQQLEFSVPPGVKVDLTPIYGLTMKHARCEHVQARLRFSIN

CYP2C19 = details: coadministration of zanubrutinib; cited from earlier work
CYP2C9 [4] = details: coadministration of zanubrutinib; cited from earlier work
CYP2C8 = molecular target: T2, CYP2C8 (Homo sapiens, UniProt P10632); assay: Time-dependent CYP inhibition in HLMs; details: 10 µM zanubrutinib, 30 min pre-incubation with HLMs and NADPH
T2 sequence (P10632 1-490): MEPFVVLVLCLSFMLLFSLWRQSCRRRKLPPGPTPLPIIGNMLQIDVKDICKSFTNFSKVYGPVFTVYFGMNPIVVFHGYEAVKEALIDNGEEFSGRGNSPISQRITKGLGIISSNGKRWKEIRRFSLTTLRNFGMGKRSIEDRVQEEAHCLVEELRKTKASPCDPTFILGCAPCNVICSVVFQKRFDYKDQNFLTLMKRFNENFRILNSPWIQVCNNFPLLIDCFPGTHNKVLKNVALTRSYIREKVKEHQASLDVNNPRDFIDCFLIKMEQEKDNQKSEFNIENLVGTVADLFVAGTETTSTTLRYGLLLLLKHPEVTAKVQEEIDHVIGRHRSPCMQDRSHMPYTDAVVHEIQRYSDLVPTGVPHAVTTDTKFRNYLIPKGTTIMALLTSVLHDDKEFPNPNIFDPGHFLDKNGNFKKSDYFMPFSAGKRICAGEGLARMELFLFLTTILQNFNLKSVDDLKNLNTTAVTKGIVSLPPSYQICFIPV

CYP1A2 [5] = molecular target: T1, CYP1A2; details: 10 µM zanubrutinib, 30 min pre-incubation with HLMs and NADPH
[6] = CYP phenotyping in HLMs with chemical inhibitors; details: 1 μM
CYP2D6 [7] = molecular target: T3, CYP2D6 (Homo sapiens, UniProt P10635); assay: Time-dependent CYP inhibition in HLMs; details: 10 µM zanubrutinib, 30 min pre-incubation with HLMs and NADPH
T3 sequence (P10635 whole entry): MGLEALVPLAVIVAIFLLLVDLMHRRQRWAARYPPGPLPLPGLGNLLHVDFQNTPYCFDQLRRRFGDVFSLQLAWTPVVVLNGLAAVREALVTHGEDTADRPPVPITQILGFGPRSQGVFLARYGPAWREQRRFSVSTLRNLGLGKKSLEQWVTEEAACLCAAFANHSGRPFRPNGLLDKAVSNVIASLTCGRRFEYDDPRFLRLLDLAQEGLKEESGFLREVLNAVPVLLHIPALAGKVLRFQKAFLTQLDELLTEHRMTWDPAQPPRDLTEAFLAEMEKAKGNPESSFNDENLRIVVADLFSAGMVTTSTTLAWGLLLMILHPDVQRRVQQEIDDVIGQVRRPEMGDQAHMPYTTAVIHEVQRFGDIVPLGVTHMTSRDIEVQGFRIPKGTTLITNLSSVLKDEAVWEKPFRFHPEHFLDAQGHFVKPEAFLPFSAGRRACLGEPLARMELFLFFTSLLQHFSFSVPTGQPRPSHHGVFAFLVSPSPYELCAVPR

CYP2C9 [8] = molecular target: CYP2C9 (Homo sapiens, UniProt P11712); assay: Time-dependent CYP inhibition in HLMs; details: 10 µM zanubrutinib, 30 min pre-incubation with HLMs and NADPH
Chain of CYP2C9 (Homo sapiens, UniProt P11712) (P11712 whole entry): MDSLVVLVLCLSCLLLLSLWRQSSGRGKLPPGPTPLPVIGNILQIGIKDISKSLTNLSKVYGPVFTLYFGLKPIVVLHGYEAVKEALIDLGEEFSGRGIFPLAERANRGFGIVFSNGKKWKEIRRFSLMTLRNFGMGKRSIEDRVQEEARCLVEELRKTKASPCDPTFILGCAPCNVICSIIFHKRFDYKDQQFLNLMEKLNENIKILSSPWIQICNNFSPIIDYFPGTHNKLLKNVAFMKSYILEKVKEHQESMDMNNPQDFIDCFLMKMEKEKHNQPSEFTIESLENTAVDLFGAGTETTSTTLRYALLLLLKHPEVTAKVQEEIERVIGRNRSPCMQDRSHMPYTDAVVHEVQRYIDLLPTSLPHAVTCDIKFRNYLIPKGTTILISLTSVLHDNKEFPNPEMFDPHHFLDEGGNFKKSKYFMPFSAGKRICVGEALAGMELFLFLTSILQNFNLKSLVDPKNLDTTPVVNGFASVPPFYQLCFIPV

CYP2D6 [9] = molecular target: T3, CYP2D6; assay: CYP reversible inhibition in HLMs; assay type: in vitro ADME
CYP2B6 = assay: CYP induction in human hepatocytes; assay type: in vitro ADME
CYP3A [10] = molecular target: CYP3A (Homo sapiens, UniProt P08684); assay: CYP reversible inhibition in HLMs; details: for R1: DDI basic model, hepatic; for R1 , gut: intestinal CYP3A, basic model; for Ag / Ah: static model term; for Ag: gut inhibition; for Ah: liver inhibition
Chain of CYP3A (Homo sapiens, UniProt P08684) (P08684 2-503): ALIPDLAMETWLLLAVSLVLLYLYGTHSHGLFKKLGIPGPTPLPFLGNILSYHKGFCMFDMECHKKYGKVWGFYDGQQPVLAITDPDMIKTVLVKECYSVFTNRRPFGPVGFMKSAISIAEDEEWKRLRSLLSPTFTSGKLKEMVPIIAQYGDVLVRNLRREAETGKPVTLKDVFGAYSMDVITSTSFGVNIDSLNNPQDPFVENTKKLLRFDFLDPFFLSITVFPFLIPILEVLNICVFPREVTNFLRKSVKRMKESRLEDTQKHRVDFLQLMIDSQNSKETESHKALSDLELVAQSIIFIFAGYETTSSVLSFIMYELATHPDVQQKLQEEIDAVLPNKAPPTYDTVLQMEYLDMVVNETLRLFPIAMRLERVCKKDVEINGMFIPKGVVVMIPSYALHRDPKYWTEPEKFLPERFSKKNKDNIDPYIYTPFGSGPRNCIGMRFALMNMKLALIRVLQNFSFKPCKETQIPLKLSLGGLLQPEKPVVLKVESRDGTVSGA

BCRP = details: coadministration of zanubrutinib; cited from earlier work
[11] = DDI basic model value for induction
[12] = static model term, induction in liver

Chain of P-gp (P08183 whole entry): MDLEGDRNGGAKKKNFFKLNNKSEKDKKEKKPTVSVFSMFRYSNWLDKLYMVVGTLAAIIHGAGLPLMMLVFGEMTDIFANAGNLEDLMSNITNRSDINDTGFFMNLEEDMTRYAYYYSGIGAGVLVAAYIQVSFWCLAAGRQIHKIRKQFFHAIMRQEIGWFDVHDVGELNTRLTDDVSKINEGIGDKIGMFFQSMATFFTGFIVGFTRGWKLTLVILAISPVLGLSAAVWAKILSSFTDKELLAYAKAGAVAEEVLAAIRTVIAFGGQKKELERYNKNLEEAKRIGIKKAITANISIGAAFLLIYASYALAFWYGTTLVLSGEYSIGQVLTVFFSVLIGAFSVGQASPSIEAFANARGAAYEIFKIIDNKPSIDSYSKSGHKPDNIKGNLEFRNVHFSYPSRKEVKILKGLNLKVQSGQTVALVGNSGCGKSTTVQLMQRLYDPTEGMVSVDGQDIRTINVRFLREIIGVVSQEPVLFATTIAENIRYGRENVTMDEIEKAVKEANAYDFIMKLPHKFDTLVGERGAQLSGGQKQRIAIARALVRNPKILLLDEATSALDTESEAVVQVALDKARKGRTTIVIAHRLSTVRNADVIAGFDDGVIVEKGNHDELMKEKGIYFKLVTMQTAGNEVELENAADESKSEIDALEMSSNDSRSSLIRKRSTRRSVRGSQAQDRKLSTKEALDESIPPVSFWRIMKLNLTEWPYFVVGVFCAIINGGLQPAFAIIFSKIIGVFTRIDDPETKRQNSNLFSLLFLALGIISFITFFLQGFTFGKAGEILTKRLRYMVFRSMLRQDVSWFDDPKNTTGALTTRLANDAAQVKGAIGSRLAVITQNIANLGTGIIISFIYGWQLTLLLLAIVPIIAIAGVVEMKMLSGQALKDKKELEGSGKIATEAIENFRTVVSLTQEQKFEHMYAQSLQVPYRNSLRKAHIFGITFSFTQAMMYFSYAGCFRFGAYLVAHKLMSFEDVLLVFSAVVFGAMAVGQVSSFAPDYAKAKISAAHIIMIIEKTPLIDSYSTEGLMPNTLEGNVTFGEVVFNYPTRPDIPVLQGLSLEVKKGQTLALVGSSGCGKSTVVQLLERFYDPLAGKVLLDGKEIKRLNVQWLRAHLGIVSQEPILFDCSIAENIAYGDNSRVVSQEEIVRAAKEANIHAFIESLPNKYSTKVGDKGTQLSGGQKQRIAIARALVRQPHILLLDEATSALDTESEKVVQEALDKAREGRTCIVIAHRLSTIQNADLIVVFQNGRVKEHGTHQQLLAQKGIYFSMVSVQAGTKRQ

C=CC(=O)N1CCC([C@@H]2CCNc3c(C(N)=O)c(-c4ccc(Oc5ccccc5)cc4)nn32)CC1 [zanubrutinib]
Papp A→B at 90 min, 1 µM (P-gp; dog, MDCK-MDR1): 9.16 ± 0.1 ×10⁻⁶ cm/s
Papp A→B at 90 min, 10 µM (P-gp; dog, MDCK-MDR1): 21.9 ± 0.049 ×10⁻⁶ cm/s
Papp B→A at 90 min, 1 µM (P-gp; dog, MDCK-MDR1): 31.7 ± 0.12 ×10⁻⁶ cm/s
Papp B→A at 90 min, 10 µM (P-gp; dog, MDCK-MDR1): 47.9 ± 0.094 ×10⁻⁶ cm/s
P-gp substrate status (P-gp; efflux ratio >2 indicates substrate): potential P‐gp substrate
C max (mean steady‐state concentration) ([1]; 160 mg BID, dose-escalation study, ref data on file): 338 ng/mL
ka (first‐order absorption rate constant) ([1]; estimated from population PK): 0.526
Percent loss of enzymatic activity (CYP3A [2]): 19.2%
IC50 (CYP1A2 [3]): 121 µM
Ki (CYP1A2 [3]; Ki, phenacetin, Ki = IC50/2): 60.5 µM
Ki (CYP1A2 [3]; Kiu, phenacetin, unbound Ki): 47.8 µM
R1 (CYP1A2 [3]; phenacetin, DDI basic model, hepatic): 1.00
Ah (CYP1A2 [3]; phenacetin, static model term, liver inhibition): 1.00
Reduction of AUC of CYP2C19 probe omeprazole (CYP2C19): 36.5%
Effect on the clinical PK of warfarin (CYP2C9 [4]): no remarkable effect
Percent loss of enzymatic activity (CYP2C8): 21.9%
Percent loss of enzymatic activity (CYP1A2 [5]): 8.10%
Zanubrutinib remaining ([6]; 30-min incubation with HLMs + CYP3A inhibitor ketoconazole 1 µM): 98.9%
Zanubrutinib remaining ([6]; 30-min incubation with HLMs, no inhibitor): 32.8%
Percent loss of enzymatic activity (CYP2D6 [7]): −14.6%
Percent loss of enzymatic activity (CYP2C9 [8]): 5.86%
IC50 (CYP2D6 [9]): 72.9 µM
Ki (CYP2D6 [9]; Ki, dextromethorphan, Ki = IC50/2): 36.5 µM
Ki (CYP2D6 [9]; Kiu, dextromethorphan, unbound Ki): 28.8 µM
R1 (CYP2D6 [9]; dextromethorphan, DDI basic model, hepatic): 1.00
Ah (CYP2D6 [9]; dextromethorphan, static model term, liver inhibition): 1.00
R 3 (CYP2B6; [11]): 0.55
EC50 at 2 days (CYP2B6; human, cryopreserved human hepatocytes): 0.73 µM
Ch (CYP2B6; [12]): 1.23
R1 (CYP3A [10]; midazolam): 1.00
R1 , gut (CYP3A [10]; midazolam): 241
Ag (CYP3A [10]; midazolam): 0.45
Ah (CYP3A [10]; midazolam): 0.99
R1 (CYP3A [10]; testosterone): 1.00
R1 , gut (CYP3A [10]; testosterone): 58
Ag (CYP3A [10]; testosterone): 0.77
Ah (CYP3A [10]; testosterone): 1.00
R 3 (CYP3A4; [11]): 0.23
Cg (CYP3A4; static model term, induction in gut): 14.6
Ch (CYP3A4; [12]): 1.77
Effect on exposure of BCRP probe rosuvastatin (BCRP): did not significantly affect the exposure
